Patent publication US20110172308A1, “Antagonsim of PGF2a Receptor to Treat Hyertension Characterized by Activation of the Renin-Angiotensin-Aldosterone System” (The Trustees of The University of Pennsylvania, priority 2008, published 2011)
Entries after “also recorded” stand apart in the source; their conditions may differ.

Assays:
JG cells = assay: cAMP content in cultured cells rich in JG cells; type: cell-based, mouse; conditions: vs vehicle controls
Text: (§1) FIGS. 5A-5E depict data related to renin expression resulting from activation of FP or prostacyclin (IP) receptor in in vitro cultures of juxtaglomerular apparatus cells obtained from WT or FP knockout mice. FIG. 5A is a graph depicting the effect of FP agonists Latanoprost (Lata) and Travoprost (Trav), and IP agonist Cicaprost (Cica) on renin mRNA expression in JG enriched cultured cells. Each point represents mean±SEMs of 4 cell groups, repeated 3 times. FIG. 5B is a bar graph illustrating the effect of effect of Latanoprost and Cicaprost on cAMP content in cultured cells rich in JG cells. Data are presented as cAMP fold change from 3-6 independent samples (6-well plate) from 3 independent experiments. *, p<0.05 vs vehicle controls, n=3. FIG. 5C is a graph of the original recording of membrance capacitance in a single mouse JG cell from WT mice. […] FIG. 5E is a graph of whole cell currents were measured in response to 11 pulses from −150 to +90 mV in 30-mV steps for 200 ms from a holding potential of −30 mV. Pulses were applied before and after superfusion with 1 μM Latanoprost. Mean steady-state current-voltage curves from 4 independent experiments before (cycle) and after (square) 20 min of capacitance measurements are given.
Culture of Juxtaglomerular (JG) cells: JG cells were prepared as described (Fujino et al., 2004, J Clin Invest. 114: 805-812). […]

[1] = test system: juxtaglomerular (JG) cells; assay: Renin mRNA expression in cultured JG cells treated with prostanoid agonists (real time RT-PCR); type: cell-based, mouse
Protocol: Culture of Juxtaglomerular (JG) cells: JG cells were prepared as described (Fujino et al., 2004, J Clin Invest. 114: 805-812). The kidneys were removed, decapsulated, minced with a surgical blade, incubated with 0.1% collagenase for 15 minutes at 37° C. and filtered through a 40 μm nylon mesh. The filtered cells were placed on 15 ml of 30% isosmotic Percoll solution (Amersham Biosciences) and centrifuged at 27,000 g for 20 minutes at 4° C. The cell layer near the surface, enriched with JG cells, was collected and washed. […] The resulting cDNA (40 ng) was used for quantitative real time PCR. Quantitative real time PCR Analysis of Gene Expression: TaqMan gene expression assays (Applied Biosystems, Foster City, Calif.; catalog No. 4331182) for FP (Mm004360055_m1), RENIN (Mm02342889_g1), TNFα (Mm00443258_m1), IL-1β (Mm00434228_m1), IL-12β (Mm01351787_m1), IL-4 (Mm00445259_m1,) IL-6 (Mm00446190_m1), IL-18 (Mm00434225_m1), iNOS (Mm01309902_m1), TGFβ (Mm00441724_m1), INFγ (Mm00801778_m1), IL-10 (Mm00439616_m1) were performed on an ABI Prism 7900 Sequence Detection System. […] An prostanoid agonist was administered as different concentrations and the expression of renin was monitored using real time RT-PCR. […]

renin secretion = conditions: Jensen et al., 1996; Fujino et al., 2004; cited from earlier work
WT and FPKO mice = assay: Mean arterial blood pressure after PGF2α administration; type: in vivo, mouse
Protocol: Mean Arterial Blood Pressure (BP) Measurements: The right internal jugular vein and left carotid artery of anesthetized mice were cannulated with PE-10 tubing. The arterial catheter was connected to a Capto SP844 pressure transducer, and BP was monitored continuously with a PowerLab/8SP system. Mice were injected via the right internal jugular vein with […] or PGF2α administration to exclude volume-mediated BP changes.
Given that the lacZ gene was knocked into the endogenous FP receptor locus in the FP targeting allele, the receptor expression pattern was monitored by mapping β-galactosidase (β-gal) activity. Scattered activity of β-gal was detectable in the medial smooth muscle layer of renal small arteries in FP^+/− mice (FIG. 6A), but was not evident in FP^+/− mouse aorta nor in the atherosclerotic lesions of Ldlr^−/−/FP^−/− mice (FIGS. 6B-6G). To assess the systemic effect of PGF2α, WT and FPKO mice were sedated in order to measure blood pressure directly in the heart. PGF2α was administered and blood pressure was monitored. Once blood pressure returned to baseline, the next dose of PGF2α was administered (FIG. 6H). Four doses of PGF2α were tested: 10 μg/kg body weight, 30 μg/kg, 90 μg/kg and […].

single WT JG cells = assay: Patch-clamp membrane capacitance of single JG cells; type: cell-based, mouse; conditions: single WT JG cells in vitro, 1 μM Latanoprost
Text: as §1

WT and FP knockout mice = assay: Mean arterial blood pressure after bolus of Ang II; type: in vivo, mouse; conditions: 50 ng/kg, acute intracarotid infusion, n=7
Protocol: FIGS. 3A-3C depicts data related to angiotensin II receptor (AT1) expression and blood pressure effects of Ang II injection in WT and FP knockout mice. FIG. 3A depicts AT1a and FIG. 3B depicts AT1b gene expression in aorta by real time RT-PCR. *p<0.01 (n=4) versus WT, repeated 3 times. FIG. 3C depicts blood pressure (BP) after Angiotengin II (Ang II) administration (50 ng/kg) compared with baseline in FP^−/− and WT littermates. Mean arterial BP was monitored in mice by pressure transducer connected to a catheter in left artery. Baseline BP is readout before injection. BP changes are depicted as difference between baseline and after injection at one min intervals. *p<0.01 versus WT, n=8-9.
Mean Arterial Blood Pressure (BP) Measurements: The right internal jugular vein and left carotid artery of anesthetized mice were cannulated with PE-10 tubing. The arterial catheter was connected to a Capto SP844 pressure transducer, and BP was monitored continuously with a PowerLab/8SP system. […]
To examine the acute effect of Ang II on blood pressure, WT and FPKO mice were sedated and subjected to a bolus infusion of Ang II. Blood pressure was measured directly using an arterial catheter connected to a pressure transducer. After the equilibration period and the baseline BP was recorded, mice were injected with a bolus of Ang II.

CCC#CC[C@H](C)[C@H](O)C#C[C@@H]1[C@H]2C/C(=C/COCC(=O)O)C[C@H]2C[C@H]1O [Cicaprost]
JG cell cAMP (JG cells): increase | expression of renin in JG cells from FPKO mice ([1]; JG cells from FPKO mice, 20 hours incubation, various concentrations): stimulated | effects as a renin secretagogue, WT compared with FP−/− mice ([1]; JG cells from WT vs FP−/− mice): similar

CCCCC[C@H](O)/C=C/[C@H]1[C@H](O)CC(=O)[C@@H]1C/C=C\CCCC(=O)O [PGE2]
renin secretagogue activity (renin secretion): potent renin secretagogues

CCCCC[C@H](O)/C=C/[C@@H]1[C@H]2C/C(=C/CCCC(=O)O)O[C@H]2C[C@H]1O [Prostacyclin (PGI2), Prostacyclin]
renin secretagogue activity (renin secretion): potent renin secretagogues

prostaglandin F2α [PGF2α]
renin secretagogue activity (renin secretion): not | blood pressure after PGF2α administration in FPKO mice (WT and FPKO mice; FPKO mice, 10, 30, 90, 270 μg/kg): not | blood pressure in FP−/− mice at the highest rate of infusion (WT and FPKO mice; FP−/− mice, highest rate of infusion): rise in blood pressure | blood pressure after PGF2α administration in WT mice (WT and FPKO mice; WT mice, 10, 30, 90, 270 μg/kg): increased; also recorded: dose dependent

CC(C)OC(=O)CCC/C=C\C[C@@H]1[C@@H](CC[C@@H](O)CCc2ccccc2)[C@H](O)C[C@@H]1O [Latanoprost]
JG cell cAMP (JG cells): failed to increase | change in membrane capacitance (single WT JG cells): no change

angiotensin II (DRVYIHPF; Angiotensin-2; UniProt P01019 25-32, looked up) [Ang II, Ang II peptide, a powerful vasoconstrictor]
hypertensive response to acute infusion of Ang II in FP KO mice (WT and FP knockout mice; FP KO mice): 37.5±5.6 | hypertensive response to acute infusion of Ang II in WT controls (WT and FP knockout mice; WT controls): 20.3±4.7
